This passage reports TGI results from PubChem BioAssay (NCI).

What all share (experiment): NCI anticancer screen, dose series, 48 h
Test [1] deals with CAKI-1 renal.
The test system of test [2] is SF-295 CNS.
In test [3] the test system is MDA-N.
For test [4], the system named is BT-549 breast.
Test [5] has as its system M14 melanoma.
Test [6] has as its system EKVX NSCLC.
The test system of test [7] is SW-620 colon.
The test system of test [8] is SK-MEL-5 melanoma.
Test [9] has as its system HOP-62 NSCLC.
Test [10] concerns MALME-3M melanoma.
Test [11] relates to OVCAR-4 ovarian.
Test [12] has as its system 786-0 renal.
In test [13] the test system is SK-MEL-2 melanoma.
The subject of test [14] is UACC-257 melanoma.
Test [15] deals with PC-3 prostate.
Test [16] deals with CCRF-CEM leukemia.
For test [17], the system named is RPMI-8226 leukemia.
In test [18] the test system is MOLT-4 leukemia.
The subject of test [19] is HS 578T breast.
Test [20] has as its system SF-539 CNS.

Molecules are shown by their SMILES.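 Test compounds were applied to cells in 96-well plates for 48 hours at 5 doses. TGI: concentration producing complete growth inhibition.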

Consider `Cc1ccc2c(=O)c(-c3nnc(NC4CCCCC4)s3)c[nH]c2n1`, for which the TGI in [1], in test [2], in test [3], in test [4], in [5] and in test [6] was greater than 100 µM throughout. For the same compound, the TGI in test [7], in test [8], in [9], in test [10], in test [11] and in test [12] was greater than 100 µM each time. For the same compound, the TGI in [13], in test [14], in [15], in test [16], in [17] and in [18] was greater than 100 µM throughout. Further, the TGI in test [19] is greater than 100 µM.

With `C[C@H](c1ccccc1)n1c(N)c(-c2nc3ccccc3s2)c2ccc([N+](=O)[O-])cc2c1=O`, the TGI in test [1] is greater than 85.1 µM; in [2], 50.8 µM; in test [3], greater than 80.4 µM; in [4] it was greater than 95.9 µM; in [5], greater than 100 µM; in test [6] it was greater than 100 µM. In addition, the TGI was greater than 100 µM in test [7]; 19.8 µM in test [8]; 56.9 µM in test [9]; 56.8 µM in test [10]; 54 µM in test [20]; greater than 100 µM in [11]. The TGI in test [12] is greater than 100 µM; in test [13], greater than 28.7 µM; in test [14], 76.9 µM; in [15] it was greater than 65.7 µM; in [17], 1.87 µM; in [18], 19.9 µM. Besides, in test [19], the TGI is greater than 43.7 µM.

Turning to `Nc1n[nH]c2c(C(=O)Nc3ccc(Cl)cc3)c(N)n(N)c(=O)c12`, the TGI in [1], in test [3], in test [4], in [5], in [6] and in test [7] was greater than 100 µM throughout. Besides, the TGI in [8], in [10], in test [20], in test [11], in [12] and in test [13] was greater than 100 µM each time. Further, the TGI in test [14], in [15], in test [16], in test [17], in [18] and in test [19] was greater than 100 µM each time.

Regarding `c1ccc(C2=NN=C3C(c4ccccc4)=Nc4ccccc4N3C2)cc1`, the TGI was greater than 100 µM in test [1]; greater than 100 µM in test [3]; greater than 100 µM in [4]; 50.4 µM in test [5]; greater than 68.6 µM in test [6]; greater than 100 µM in [7]. In addition, the TGI in test [8] is 40.7 µM; in [9] it was greater than 100 µM; in [10] it was 97.9 µM; in test [20] it was greater than 100 µM; in [11], 42 µM; in test [12] it was greater than 100 µM. The TGI in [13] was greater than 82.2 µM; in [14], 32.4 µM; in test [15], greater than 100 µM; in [16] it was 20.2 µM; in [17], 40.8 µM; in test [18] it was greater than 52.3 µM. Moreover, in [19], the TGI came to 67.5 µM.

For the compound `CC(=Nc1cccc(Cl)c1)c1ccncc1`, the TGI in [1], in test [2], in test [3], in [4], in test [5] and in test [6] was greater than 100 µM each time. In addition, the TGI in test [7], in test [8], in test [9], in test [10], in test [20] and in [11] was greater than 100 µM throughout. Besides, the TGI in test [12], in test [13], in test [15], in test [16], in [17] and in test [18] was greater than 100 µM each time. In [19], this compound returned a TGI greater than 100 µM.

Consider `O=C(Cn1c2c(c3ccccc31)CCCC2)N1CCCCC1`, for which the TGI in test [1], in test [2], in test [3], in test [4], in test [5] and in test [6] was greater than 100 µM throughout. Besides, the TGI in test [7], in test [8], in test [9], in test [10], in test [20] and in test [11] was greater than 100 µM each time. For the same compound, the TGI in test [12], in test [13], in test [14], in test [15], in test [17] and in [18] was greater than 100 µM throughout. For the same compound, the TGI in test [19] is greater than 100 µM.

With `CCOC(=O)c1c(N2CCOCC2)ncn(-c2cccc(Cl)c2)c1=O`, the TGI in [1], in test [2], in test [3], in test [4], in [5] and in test [6] was greater than 100 µM in each case. The TGI in test [7], in test [9], in [10], in [20], in test [11] and in test [12] was greater than 100 µM each time. In addition, the TGI in [13], in [14], in test [15], in [16], in test [17] and in [18] was greater than 100 µM each time. Also, the TGI in test [19] is greater than 100 µM.
